According to BigSolDB 2.1:

NNC(=O)c1ccncc1
solubility (mole fraction)
Conditions | 301 K | 303 K | 308 K | 311 K | 313 K
in acetone | 0.00946 | 0.0104 | 0.0136 | 0.016 | 0.0187
in ethanol | 0.00545 | 0.00579 | 0.00717 | 0.00816 | 0.00887
in ethyl acetate | 0.00159 | 0.00172 | 0.00206 | 0.00225 | 0.00251
in methanol | 0.0107 | 0.0114 | 0.0137 | 0.0154 | 0.0163
